≈ marks a conversion by molar mass, not a printed value.
How the values were obtained:
C. krusei ATCC 6258 = experiment: Anti-Fungal (Candida) Activity Assay, broth microtiter MIC; format: cell-based, Candida krusei; conditions: Pichia kudriavzevii, ATCC6258, 48 h, 3 replicates, MIC read at 48 h
Protocol: (§1) Compounds of the present invention were evaluated in an Anti-Fungal Activity Assay. An exemplary procedure for the assay, which measures the susceptibility of various Candida species to anti-fungal compounds, follows. Compounds to be tested (including fluconazole and amphotericin B) were dissolved in DMSO to obtain a solution having a concentration of 1 mg/mL. These stock solutions were sterile filtered using a 0.22 um nylon syringe filter, then diluted in sterile water to achieve a final concentration of 128 μg/mL.
(§2) All species were grown from frozen stock by directly plating on to freshly prepared Sabouraud Dextrose agar (BD, Difco) and incubated overnight in ambient air at 35° C. for 24 h. A direct suspension was prepared in RPMI 1640+MOPS (Lonza, Biowhittaker) by taking individual colonies from the overnight cultures using sterile swabs soaked in sterile saline. The concentration of the suspension was determined using pre-determined standard curves. These suspensions were then diluted down to 5×10^3 CFU/mL to achieve a final concentration of 2.5×10^3 CFU/mL once added to the microtiter plate as per CLSI guidelines (M27-A3, Vol. 28 No. 14).
(§3) Broth microtiter MIC challenge plates were prepared following CLSI guidelines (M27-A3, Vol. 28 No. 14). The original CLSI guidelines focused on reading Candida MICs after 48 h of incubation. As reading after only 24 h offers a clear advantage of patient care, QC limits are being established for all drugs at 24 h. That being said there are no known interpretive breakpoints for amphotericin B at 24 h and the current fluconazole interpretive breakpoints are based on a 48 h reading. The MIC for the test compounds were recorded at 48 h. All MIC determinations were achieved by visually comparing the growth found in the antibiotic challenged wells to that of the growth control.

C. albicans ATCC 90028 = experiment: as above; format: cell-based; conditions: ATCC90028, 48 h, 3 replicates, MIC read at 48 h
Protocol: as §1, §2, §3

[1] = system: C. parapsilosis ATCC 22019; experiment: as above; format: cell-based; conditions: Lodderomyces parapsilosis, ATCC22019, 48 h, 3 replicates, MIC read at 48 h
Protocol: as §1, §2, §3

fACC2 = fACC2 (UniProt Q00955); experiment: In vitro ACC2 inhibition assay (ADP-Glo), fungal ACC2; format: biochemical
Sequence of fACC2 (Q00955 whole entry): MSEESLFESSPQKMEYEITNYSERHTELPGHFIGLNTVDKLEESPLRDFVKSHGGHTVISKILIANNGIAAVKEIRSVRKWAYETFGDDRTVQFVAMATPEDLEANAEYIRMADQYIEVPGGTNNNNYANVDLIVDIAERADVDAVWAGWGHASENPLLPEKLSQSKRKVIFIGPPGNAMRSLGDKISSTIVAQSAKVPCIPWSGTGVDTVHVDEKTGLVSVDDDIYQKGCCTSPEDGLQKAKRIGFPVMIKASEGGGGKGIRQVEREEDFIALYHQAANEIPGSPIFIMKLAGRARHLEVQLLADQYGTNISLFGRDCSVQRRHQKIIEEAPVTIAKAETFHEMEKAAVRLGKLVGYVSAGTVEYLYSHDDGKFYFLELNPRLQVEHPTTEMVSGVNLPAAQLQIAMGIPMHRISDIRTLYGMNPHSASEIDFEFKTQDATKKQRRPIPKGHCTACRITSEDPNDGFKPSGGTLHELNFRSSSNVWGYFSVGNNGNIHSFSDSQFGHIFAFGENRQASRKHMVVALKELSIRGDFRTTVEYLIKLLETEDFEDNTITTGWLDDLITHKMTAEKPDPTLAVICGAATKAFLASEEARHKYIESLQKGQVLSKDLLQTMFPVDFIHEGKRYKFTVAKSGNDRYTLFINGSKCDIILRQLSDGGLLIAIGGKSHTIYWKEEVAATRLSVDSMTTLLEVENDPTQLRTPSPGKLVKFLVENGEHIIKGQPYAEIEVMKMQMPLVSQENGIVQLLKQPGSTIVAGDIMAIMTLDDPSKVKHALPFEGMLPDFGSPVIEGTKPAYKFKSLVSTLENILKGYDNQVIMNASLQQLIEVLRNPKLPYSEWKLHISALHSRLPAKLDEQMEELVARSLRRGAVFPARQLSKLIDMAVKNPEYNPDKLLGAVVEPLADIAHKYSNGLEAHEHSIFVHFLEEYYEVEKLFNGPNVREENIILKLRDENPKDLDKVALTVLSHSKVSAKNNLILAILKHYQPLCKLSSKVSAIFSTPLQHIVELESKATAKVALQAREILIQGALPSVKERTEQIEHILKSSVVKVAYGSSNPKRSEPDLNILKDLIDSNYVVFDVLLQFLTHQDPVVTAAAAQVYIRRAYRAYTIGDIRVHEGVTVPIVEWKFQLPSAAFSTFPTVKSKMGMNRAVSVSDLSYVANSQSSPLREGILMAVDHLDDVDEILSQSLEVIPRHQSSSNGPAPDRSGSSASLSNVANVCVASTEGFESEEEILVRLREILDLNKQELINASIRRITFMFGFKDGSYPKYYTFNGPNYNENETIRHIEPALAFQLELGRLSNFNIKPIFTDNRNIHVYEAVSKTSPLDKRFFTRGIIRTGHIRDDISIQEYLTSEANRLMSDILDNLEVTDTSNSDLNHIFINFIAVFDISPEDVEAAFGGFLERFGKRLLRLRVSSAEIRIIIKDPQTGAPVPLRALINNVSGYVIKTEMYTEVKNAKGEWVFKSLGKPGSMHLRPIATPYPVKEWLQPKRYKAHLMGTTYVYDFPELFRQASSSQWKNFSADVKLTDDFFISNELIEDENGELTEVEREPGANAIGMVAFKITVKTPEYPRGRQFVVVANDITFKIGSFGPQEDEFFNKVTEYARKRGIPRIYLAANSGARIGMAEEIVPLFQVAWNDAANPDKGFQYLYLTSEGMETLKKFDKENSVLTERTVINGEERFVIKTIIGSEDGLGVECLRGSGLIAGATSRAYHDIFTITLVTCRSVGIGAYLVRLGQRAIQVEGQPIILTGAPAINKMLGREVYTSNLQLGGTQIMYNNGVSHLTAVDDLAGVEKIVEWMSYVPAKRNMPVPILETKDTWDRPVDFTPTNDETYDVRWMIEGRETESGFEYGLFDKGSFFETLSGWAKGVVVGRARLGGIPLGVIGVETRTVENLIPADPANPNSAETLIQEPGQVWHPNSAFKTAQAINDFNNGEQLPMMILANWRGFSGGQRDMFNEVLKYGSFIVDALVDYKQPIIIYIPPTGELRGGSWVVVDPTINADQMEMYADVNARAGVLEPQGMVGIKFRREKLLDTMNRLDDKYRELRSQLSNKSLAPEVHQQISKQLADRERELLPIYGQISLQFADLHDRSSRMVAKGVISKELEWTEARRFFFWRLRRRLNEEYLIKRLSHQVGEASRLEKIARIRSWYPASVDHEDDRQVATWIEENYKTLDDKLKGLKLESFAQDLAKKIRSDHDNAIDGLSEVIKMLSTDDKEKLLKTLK
Protocol: An exemplary procedure for the in vitro ACC inhibition assay, which can be used to determine the inhibitory action of compounds of the invention toward either human (hACC2) or fungal (fACC2) ACC2, follows. The ADP-Glo™ Kinase Assay kit from Promega was used. The ADP-Glo™ Kinase Assay is a luminescent ADP detection assay to measure enzymatic activity by quantifying the amount of ADP produced during an enzyme reaction. The assay is performed in two steps; first, after the enzyme reaction, an equal volume of ADP-Glo™ Reagent is added to terminate the reaction and deplete the remaining ATP. Second, the Kinase Detection Reagent is added to simultaneously convert ADP to ATP and allow the newly synthesized ATP to be measured using a luciferase/luciferin reaction. Luminescence can be correlated to ADP concentrations by using an ATP-to-ADP conversion curve. The detailed procedure is as follows. 50 μL of the compound being tested (600 μM in DMSO) was added to a 384-well dilution plate. The compound was diluted 1:3 in succession in DMSO for each row for 11 wells. 0.5 μL ACC2 working solution was added to 384-well white Optiplate assay plate. 0.5 μL diluted compound solution in each column from step 2 was added to assay plate, each row containing 2 replicates. For the last 2 rows, 0.5 μL negative control (DMSO) was added in one row and 0.5 μL positive control (compound I-97) in the other. The plates were incubated at room temperature for 15 minutes. 5 μL substrate working solution was added to each well to initiate reaction. Final ACC2 reaction concentrations consist of: 5 nM ACC2, 20 μM ATP, 20 μM acetyl-CoA, 12 mM NaHCO3, 0.01% Brij35, 2 mM DTT, 5% DMSO, test compound concentrations: 30 μM, 10 μM, 3.33 μM, 1.11 μM, 0.37 μM, 0.123 μM, 0.0411 μM, 0.0137 μM, 0.00457 μM, 0.00152 μM, and 0.00051 μM. Plates were incubated at room temperature for 60 minutes. 10 μL ADP glo reagent was added. Plates were incubated at room temperature for 40 minutes. 20 μL kinase detection reagent was added. Plates were incubated at room temperature for 40 minutes, and then read on a Perkin Elmer EnVision 2104 plate reader for luminescence as Relative Light Units (RLU).
Data for each concentration, as well as the positive and negative controls, were averaged, and the standard deviation calculated. Percent inhibition was calculated by the formula: 100×(average negative control−compound)/(average negative control−average positive control). The IC50 for each compound was calculated by fitting the data with a non-linear regression equation: Y=Bottom+(Top−Bottom)/(1+10^((Log IC50−X)*HillSlope)), where X is the log of compound concentration and Y is percent inhibition.

Compound | MIC (C. krusei ATCC 6258; Table 3b (additional results)) | MIC (C. albicans ATCC 90028; Table 3b (additional results)) | MIC ([1]; Table 3b (additional results)) | IC50 (fACC2; Table 2b (additional results)) | MIC (C. krusei ATCC 6258; Table 3a) | MIC (C. albicans ATCC 90028; Table 3a) | MIC ([1]; Table 3a) | IC50 (fACC2; Table 2a)
CCOC(=O)c1sc2c(c1C)c(=O)n([C@@H](C)C(=O)NC(C)C)c(=O)n2C[C@H](O)c1cc(F)ccc1OC [Compound I-44, ethyl 1-((R)-2-(5-fluoro-2-methoxyphenyl)-2-hydroxyethyl)-3-((S)-1-(isopropylamino)-1-oxopropan-2-yl)-5-methyl-2,4-dioxo-1,2,3,4-tetrahydrothieno[2,3-d]pyrimidine-6-carboxylate] | 2.1 to 4 µg/mL (≈ 3.92 to 7.47 µM) | 2.1 to 4 µg/mL (≈ 3.92 to 7.47 µM) | 2.1 to 4 µg/mL (≈ 3.92 to 7.47 µM) | 10 to 40 nM | – | – | – | –
CCOC(=O)c1sc2c(c1C)c(=O)n(C(C)(C)C(=O)N1CCCC1)c(=O)n2C[C@H](OCCOC)c1cc(F)ccc1OC [Compound I-13, (R)-ethyl 1-(2-(5-fluoro-2-methoxyphenyl)-2-(2-methoxy-ethoxy)ethyl)-5-methyl-3-(2-methyl-1-oxo-1-(pyrrolidin-1-yl)propan-2-yl)-2,4-dioxo-1,2,3,4-tetrahydrothieno[2,3-d]pyrimidine-6-carboxylate] | 2.1 to 4 µg/mL (≈ 3.39 to 6.45 µM) | 2.1 to 4 µg/mL (≈ 3.39 to 6.45 µM) | 2.1 to 4 µg/mL (≈ 3.39 to 6.45 µM) | – | > 4.1 µg/mL | > 4.1 µg/mL | > 4.1 µg/mL | 0.6 to 3 nM
CCOC(=O)c1sc2c(c1C)c(=O)n([C@@H](C)C(=O)NC(C)C)c(=O)n2C[C@H](OCCC#N)c1cc(F)ccc1OC [Compound I-20, ethyl 1-((R)-2-(2-cyanoethoxy)-2-(5-fluoro-2-methoxy-phenyl)ethyl)-3-((S)-1-(isopropylamino)-1-oxopropan-2-yl)-5-methyl-2,4-dioxo-1,2,3,4-tetrahydrothieno[2,3-d]pyrimidine-6-carboxylate] | 1.1 to 2 µg/mL (≈ 1.87 to 3.4 µM) | 2.1 to 4 µg/mL (≈ 3.57 to 6.8 µM) | 2.1 to 4 µg/mL (≈ 3.57 to 6.8 µM) | 0.3 to 3 nM | – | – | – | –
CCOC(=O)c1sc2c(c1C)c(=O)n(C(C)(C)C(=O)NC(C)C)c(=O)n2C[C@H](OCC(C)(C)C#N)c1cc(F)ccc1OC [Compound I-37, ethyl (R)-1-(2-(2-cyano-2-methylpropoxy)-2-(5-fluoro-2-methoxyphenyl)ethyl)-3-(1-(isopropylamino)-2-methyl-1-oxopropan-2-yl)-5-methyl-2,4-dioxo-1,2,3,4-tetrahydrothieno[2,3-d]pyrimidine-6-carboxylate] | 2.1 to 4 µg/mL (≈ 3.33 to 6.34 µM) | 0.25 to 1 µg/mL (≈ 0.396 to 1.59 µM) | 2.1 to 4 µg/mL (≈ 3.33 to 6.34 µM) | 0.3 to 3 nM | – | – | – | –
CCNC(=O)[C@@H](C)n1c(=O)c2c(C)c(C(=O)OCC)sc2n(C[C@H](OCCC#N)c2cc(F)ccc2OC)c1=O [Compound I-41, ethyl 1-((R)-2-(2-cyanoethoxy)-2-(5-fluoro-2-methoxy-phenyl)ethyl)-3-((R)-1-(ethylamino)-1-oxopropan-2-yl)-5-methyl-2,4-dioxo-1,2,3,4-tetrahydrothieno[2,3-d]pyrimidine-6-carboxylate] | 2.1 to 4 µg/mL (≈ 3.65 to 6.96 µM) | 2.1 to 4 µg/mL (≈ 3.65 to 6.96 µM) | 2.1 to 4 µg/mL (≈ 3.65 to 6.96 µM) | 0.3 to 3 nM | – | – | – | –
CCNC(=O)C(C)(C)n1c(=O)c2c(C)c(C(=O)OCC)sc2n(C[C@H](O)c2cc(F)ccc2OC)c1=O [Compound I-39, ethyl (R)-3-(1-(ethylamino)-2-methyl-1-oxopropan-2-yl)-1-(2-(5-fluoro-2-methoxyphenyl)-2-hydroxyethyl)-5-methyl-2,4-dioxo-1,2,3,4-tetrahydrothieno[2,3-d]pyrimidine-6-carboxylate] | 0.25 to 1 µg/mL (≈ 0.467 to 1.87 µM) | 2.1 to 4 µg/mL (≈ 3.92 to 7.47 µM) | 2.1 to 4 µg/mL (≈ 3.92 to 7.47 µM) | 0.3 to 3 nM | – | – | – | –
CCOC(=O)c1sc2c(c1C)c(=O)n(C(C)(C)C(=O)NC(C)C)c(=O)n2C[C@H](OCCOC)c1cc(F)ccc1OC [Compound I-11, (R)-ethyl 1-(2-(5-fluoro-2-methoxyphenyl)-2-(2-methoxy-ethoxy)ethyl)-3-(1-(isopropylamino)-2-methyl-1-oxopropan-2-yl)-5-methyl-2,4-dioxo-1,2,3,4-tetrahydrothieno[2,3-d]pyrimidine-6-carboxylate] | 2.1 to 4 µg/mL (≈ 3.46 to 6.58 µM) | 2.1 to 4 µg/mL (≈ 3.46 to 6.58 µM) | 1.1 to 2 µg/mL (≈ 1.81 to 3.29 µM) | 0.3 to 3 nM | 2.1 to 4 µg/mL (≈ 3.46 to 6.58 µM) | 2.1 to 4 µg/mL (≈ 3.46 to 6.58 µM) | 2.1 to 4 µg/mL (≈ 3.46 to 6.58 µM) | 0.6 to 3 nM
CCOC(=O)c1sc2c(c1C)c(=O)n(C(C)(C)C(=O)NC(C)C)c(=O)n2C[C@H](OC(C)C)c1ccccc1OC [Compound I-9, (R)-ethyl 1-(2-isopropoxy-2-(2-methoxyphenyl)ethyl)-3-(1-(isopropylamino)-2-methyl-1-oxopropan-2-yl)-5-methyl-2,4-dioxo-1,2,3,4-tetrahydrothieno[2,3-d]pyrimidine-6-carboxylate] | 2.1 to 4 µg/mL (≈ 3.66 to 6.97 µM) | 1.1 to 2 µg/mL (≈ 1.92 to 3.49 µM) | 2.1 to 4 µg/mL (≈ 3.66 to 6.97 µM) | 0.3 to 3 nM | 2.1 to 4 µg/mL (≈ 3.66 to 6.97 µM) | 1.1 to 2 µg/mL (≈ 1.92 to 3.49 µM) | 2.1 to 4 µg/mL (≈ 3.66 to 6.97 µM) | 0.6 to 3 nM
CCOC(=O)c1sc2c(c1C)c(=O)n(C(C)(C)C(=O)NC(C)C)c(=O)n2C[C@H](OCC(C)(C)C#N)c1ccccc1OC [Compound I-38, ethyl (R)-1-(2-(2-cyano-2-methylpropoxy)-2-(2-methoxyphenyl)ethyl)-3-(1-(isopropylamino)-2-methyl-1-oxopropan-2-yl)-5-methyl-2,4-dioxo-1,2,3,4-tetrahydrothieno[2,3-d]pyrimidine-6-carboxylate] | > 4.1 µg/mL | 0.25 to 1 µg/mL (≈ 0.408 to 1.63 µM) | 2.1 to 4 µg/mL (≈ 3.43 to 6.53 µM) | 0.3 to 3 nM | – | – | – | –
CCOC(=O)c1sc2c(c1C)c(=O)n(C(C)(C)C(=O)N1CCCC1)c(=O)n2C[C@H](OC(C)C)c1ccccc1OC [Compound I-7, (R)-ethyl 1-(2-isopropoxy-2-(2-methoxyphenyl)ethyl)-5-methyl-3-(2-methyl-1-oxo-1-(pyrrolidin-1-yl)propan-2-yl)-2,4-dioxo-1,2,3,4-tetrahydrothieno[2,3-d]pyrimidine-6-carboxylate] | 2.1 to 4 µg/mL (≈ 3.59 to 6.83 µM) | 2.1 to 4 µg/mL (≈ 3.59 to 6.83 µM) | 2.1 to 4 µg/mL (≈ 3.59 to 6.83 µM) | 0.3 to 3 nM | 2.1 to 4 µg/mL (≈ 3.59 to 6.83 µM) | 2.1 to 4 µg/mL (≈ 3.59 to 6.83 µM) | 2.1 to 4 µg/mL (≈ 3.59 to 6.83 µM) | 0.6 to 3 nM
CCOC(=O)c1sc2c(c1C)c(=O)n(C(C)(C)C(=O)NC(C)C)c(=O)n2C[C@H](O)c1cc(F)ccc1OC [Compound I-19, (R)-ethyl 1-(2-(5-fluoro-2-methoxyphenyl)-2-hydroxyethyl)-3-(1-(isopropylamino)-2-methyl-1-oxopropan-2-yl)-5-methyl-2,4-dioxo-1,2,3,4-tetrahydrothieno[2,3-d]pyrimidine-6-carboxylate] | 0.25 to 1 µg/mL (≈ 0.455 to 1.82 µM) | 0.25 to 1 µg/mL (≈ 0.455 to 1.82 µM) | 2.1 to 4 µg/mL (≈ 3.82 to 7.28 µM) | – | – | – | – | –
